Laboratory results reported in PubChem BioAssay AID2060487 (Molecular Pharmacology Branch, DTP, NCI, 2025).
pIC50: −log10 of the molar value. Values belong to the compound of their own block, whether it stands above or below them.

System: 997537-175-T-J1-PDC complex spheroid viability
Assay: Anticancer human tumor 997537-175-T-J1-PDC patient-derived colon adenocarcinoma cell line growth inhibition [GQUAD]
Settings: for pIC50: curve of first compound; for viability, T/C: stronger effect = lower value
In short: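 Viability of tumor cells grown as complex spheroids with endothelial and stromal cells, exposed to drug combinations. Top concentration at or near clinical Cmax (else 10 microM), diluted in half-log increments.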

[1] = second compound 0.0316 µM, first compound 0.0316 µM
[2] = second compound 0.0316 µM, first compound 0.1 µM
[3] = second compound 0.0316 µM, first compound 0.316 µM
[4] = second compound 0.0316 µM, first compound 1 µM
[5] = second compound 0.0316 µM, first compound 3.16 µM
[6] = second compound 0.0316 µM, first compound 10 µM
[7] = second compound 0.1 µM, first compound 0.0316 µM
[8] = second compound 0.1 µM, first compound 0.1 µM
[9] = second compound 0.1 µM, first compound 0.316 µM
[10] = second compound 0.1 µM, first compound 1 µM
[11] = second compound 0.1 µM, first compound 3.16 µM
[12] = second compound 0.1 µM, first compound 10 µM
[13] = second compound 0.316 µM, first compound 0.0316 µM
[14] = second compound 0.316 µM, first compound 0.1 µM
[15] = second compound 0.316 µM, first compound 0.316 µM
[16] = second compound 0.316 µM, first compound 1 µM
[17] = second compound 0.316 µM, first compound 3.16 µM
[18] = second compound 0.316 µM, first compound 10 µM
[19] = second compound 1 µM, first compound 0.0316 µM
[20] = second compound 1 µM, first compound 0.1 µM
[21] = second compound 1 µM, first compound 0.316 µM
[22] = second compound 1 µM, first compound 1 µM
[23] = second compound 1 µM, first compound 3.16 µM
[24] = second compound 1 µM, first compound 10 µM
[25] = second compound 3.16 µM, first compound 0.0316 µM
[26] = second compound 3.16 µM, first compound 0.1 µM
[27] = second compound 3.16 µM, first compound 0.316 µM
[28] = second compound 3.16 µM, first compound 1 µM
[29] = second compound 3.16 µM, first compound 3.16 µM
[30] = second compound 3.16 µM, first compound 10 µM
[31] = second compound 10 µM, first compound 0.0316 µM
[32] = second compound 10 µM, first compound 0.1 µM
[33] = second compound 10 µM, first compound 0.316 µM
[34] = second compound 10 µM, first compound 1 µM
[35] = second compound 10 µM, first compound 3.16 µM
[36] = second compound 10 µM, first compound 10 µM
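Also: spheroids exposed to the agents for 7 days.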
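For viability, T/C in this document: 100% = DMSO vehicle control viability.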

Structure (SMILES): C#Cc1c(F)ccc2cc(O)cc(-c3ncc4c(N5CC6CCC(C5)N6)nc(OCC56CCCN5CC(F)C6)nc4c3F)c12 (stereo unspecified) + CN(C)c1ccc(Nc2c3ccc(NC(=O)CCN4CCCC4)cc3nc3cc(NC(=O)CCN4CCCC4)ccc23)cc1
pIC50 (second compound 0.0316 µM): < 5.00
pIC50 (second compound 0.1 µM): < 5.00
pIC50 (second compound 0.316 µM): < 5.00
pIC50 (second compound 1 µM): < 5.00
pIC50 (second compound 3.16 µM): < 5.00
pIC50 (second compound 10 µM): < 5.00
viability, T/C [1]: 102%
viability, T/C [2]: 97.8%
viability, T/C [3]: 98.9%
viability, T/C [4]: 91.1%
viability, T/C [5]: 87.1%
viability, T/C [6]: 107%
viability, T/C [7]: 97.7%
viability, T/C [8]: 89.4%
viability, T/C [9]: 92.6%
viability, T/C [10]: 65.7%
viability, T/C [11]: 110%
viability, T/C [12]: 106%
viability, T/C [13]: 97.2%
viability, T/C [14]: 104%
viability, T/C [15]: 103%
viability, T/C [16]: 83.4%
viability, T/C [17]: 103%
viability, T/C [18]: 105%
viability, T/C [19]: 89.5%
viability, T/C [20]: 93.3%
viability, T/C [21]: 92%
viability, T/C [22]: 82.9%
viability, T/C [23]: 101%
viability, T/C [24]: 108%
viability, T/C [25]: 69.6%
viability, T/C [26]: 97%
viability, T/C [27]: 103%
viability, T/C [28]: 106%
viability, T/C [29]: 106%
viability, T/C [30]: 124%
viability, T/C [31]: 86.8%
viability, T/C [32]: 101%
viability, T/C [33]: 106%
viability, T/C [34]: 106%
viability, T/C [35]: 114%
viability, T/C [36]: 113%

Structure (SMILES): COc1ccc([C@@H](O)c2cc(-c3ncnc4cc(N5CCOCC5)ccc34)c(F)cc2Cl)nn1 + CN(C)c1ccc(Nc2c3ccc(NC(=O)CCN4CCCC4)cc3nc3cc(NC(=O)CCN4CCCC4)ccc23)cc1
pIC50 (second compound 0.0316 µM): < 5.00
pIC50 (second compound 0.1 µM): < 5.00
pIC50 (second compound 0.316 µM): < 5.00
pIC50 (second compound 1 µM): < 5.00
pIC50 (second compound 3.16 µM): < 5.00
pIC50 (second compound 10 µM): < 5.00
viability, T/C [1]: 90.2%
viability, T/C [2]: 77.6%
viability, T/C [3]: 102%
viability, T/C [4]: 75%
viability, T/C [5]: 72.4%
viability, T/C [6]: 90%
viability, T/C [7]: 97%
viability, T/C [8]: 90.7%
viability, T/C [9]: 78.9%
viability, T/C [10]: 68.4%
viability, T/C [11]: 78%
viability, T/C [12]: 96.9%
viability, T/C [13]: 85.9%
viability, T/C [14]: 65.8%
viability, T/C [15]: 90.1%
viability, T/C [16]: 60.3%
viability, T/C [17]: 81.9%
viability, T/C [18]: 84.9%
viability, T/C [19]: 77.8%
viability, T/C [20]: 82.5%
viability, T/C [21]: 86.6%
viability, T/C [22]: 67.1%
viability, T/C [23]: 100%
viability, T/C [24]: 95.2%
viability, T/C [25]: 84%
viability, T/C [26]: 64.4%
viability, T/C [27]: 93.8%
viability, T/C [28]: 86.1%
viability, T/C [29]: 108%
viability, T/C [30]: 76.3%
viability, T/C [31]: 82.9%
viability, T/C [32]: 86.2%
viability, T/C [33]: 93%
viability, T/C [34]: 84.7%
viability, T/C [35]: 95.2%
viability, T/C [36]: 74.1%

pIC50 (second compound 0.0316 µM): 5.44
pIC50 (second compound 0.1 µM): 5.06
pIC50 (second compound 0.316 µM): < 5.00
pIC50 (second compound 1 µM): < 5.00
pIC50 (second compound 3.16 µM): < 5.00
pIC50 (second compound 10 µM): < 5.00
Structure (SMILES): CC1COCCN1c1cc(C2(S(C)(=N)=O)CC2)nc(-c2ccnc3[nH]ccc23)n1 (stereo unspecified) + Cc1cnc(CNC(=O)c2c(=O)c3ccc(N4CCCN(C)CC4)nc3n3c2sc2ccccc23)cn1
viability, T/C [1]: 105%
viability, T/C [2]: 88.9%
viability, T/C [3]: 84.8%
viability, T/C [4]: 56.8%
viability, T/C [5]: 54.9%
viability, T/C [6]: 41.7%
viability, T/C [7]: 91.4%
viability, T/C [8]: 90.4%
viability, T/C [9]: 83.9%
viability, T/C [10]: 65.9%
viability, T/C [11]: 72.3%
viability, T/C [12]: 45.2%
viability, T/C [13]: 89.5%
viability, T/C [14]: 92.8%
viability, T/C [15]: 80.6%
viability, T/C [16]: 60.3%
viability, T/C [17]: 55.4%
viability, T/C [18]: 53.4%
viability, T/C [19]: 86.7%
viability, T/C [20]: 82.5%
viability, T/C [21]: 69.6%
viability, T/C [22]: 65.8%
viability, T/C [23]: 84.7%
viability, T/C [24]: 83.7%
viability, T/C [25]: 65.4%
viability, T/C [26]: 83.7%
viability, T/C [27]: 104%
viability, T/C [28]: 78.2%
viability, T/C [29]: 59.3%
viability, T/C [30]: 69%
viability, T/C [31]: 74.8%
viability, T/C [32]: 71.4%
viability, T/C [33]: 91.8%
viability, T/C [34]: 68.3%
viability, T/C [35]: 85.4%
viability, T/C [36]: 85.8%
